Drawing on patent US9474790B2, “Stable, protracted GLP-1/glucagon receptor co-agonists for medical use” (Novo Nordisk A/S, priority 2013, dated 2016), this text covers IC50 for four compounds.

Numbered stars: 1 amine (or outer) side, 2 acyl side, 3 side chain; on linkers, the order of the positions; unused ones are H or OH. Bridge positions count the residues as written; N and C are the ends. Square brackets hold non-standard residues; d marks the D form. Side chains are listed from the residue outwards. Peptide text beside a SMILES is read from it. I, II: the chains in the order shown. * marks the point of attachment. C18 diacid = O=C(O)CCCCCCCCCCCCCCCCC(=O)*; γGlu = O=C(O)[C@H](CCC(=O)[*:2])N[*:1]; Ac4c = NC1(C(=O)O)CCC1; AEEA = NCCOCCOCC(=O)O; Aib = CC(C)(N)C(=O)O

The term IC50 denotes the concentration that inhibits the measured activity by half.

T1 sequence (P47871 26-477): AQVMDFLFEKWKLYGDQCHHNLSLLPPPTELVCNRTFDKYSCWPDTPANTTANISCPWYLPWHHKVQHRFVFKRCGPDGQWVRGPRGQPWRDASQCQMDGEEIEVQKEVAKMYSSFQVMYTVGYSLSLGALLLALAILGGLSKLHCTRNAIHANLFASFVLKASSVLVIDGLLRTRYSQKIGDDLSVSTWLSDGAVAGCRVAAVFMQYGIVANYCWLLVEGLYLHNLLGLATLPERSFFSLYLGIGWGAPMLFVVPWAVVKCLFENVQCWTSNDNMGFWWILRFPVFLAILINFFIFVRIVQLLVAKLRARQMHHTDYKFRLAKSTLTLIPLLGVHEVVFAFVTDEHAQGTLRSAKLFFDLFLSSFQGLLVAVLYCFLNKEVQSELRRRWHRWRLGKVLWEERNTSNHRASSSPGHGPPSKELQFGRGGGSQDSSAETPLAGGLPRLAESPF

The assay addresses T1, human glucagon receptor (Homo sapiens, UniProt P47871).
T1 construct: expressed in transfected cells; host or cells: BHK cells (parent BHK570, CRE luciferase clone BHK/KZ10-20-48), clone pLJ6'-4-25
Put plainly: Glucagon receptor binding, 125I-glucagon displacement SPA on isolated membranes. Conditions: displacement of 125I-glucagon from membranes; read-out: IC50 GlucR. As for the experimental part: The purpose of this assay was to test the in vitro receptor binding activity (i.e. affinity) of the glucagon derivatives of the invention. The receptor binding activity is a measure of affinity of a derivative for the human glucagon receptor.
The receptor binding of each compound to the human glucagon receptor was measured in a displacement binding assay. In this type of assay a labelled ligand (in this case 125I-glucagon) is bound to the receptor. Each derivative was added in a series of concentrations to isolated membranes containing the human glucagon receptor and displacement of the labelled ligand is monitored. The receptor binding was reported as the concentration at which half of the labelled ligand is displaced from the receptor, the IC50 value.
In order to test the binding of the derivatives to albumin, the assay may be performed in a very low concentration of serum albumin (max. 0.001% final assay concentration) as well as in the presence of a higher concentration of serum albumin (0.2% final assay concentration). An increase of the IC50 value, in the presence of serum albumin indicates an affinity to serum albumin and represents a method to predict a protracted pharmacokinetic profile of the test substance in animal models.
The following chemicals were used in the assay: DMEM w Glutamax (Gibco 61965-026), Pen/strep (Invitrogen 15140-122), G418 (Invitrogen 10131-027), Versene (Gibco 15040), 1 M Hepes (Gibco 15630), PBS (Invitrogen 14190-094), fetal calf serum (Invitrogen 16140-071), MgCl2 (Merck 1.05832.1000), EDTA (Invitrogen 15575-038), CaCl2 (Sigma, C5080), Tween 20 (Amresco 0850C335), ovalbumin (Sigma A5503), SPA particles (wheat germ agglutinin (WGA) SPA beads, Perkin Elmer RPNQ0001), [125I]-glucagon (produced in-house), OptiPlate™-96 (Packard 6005290).
HME buffer consisted of 25 mM HEPES, 2 mM MgCl2 and 1 mM EDTA, and pH was adjusted to 7.4. Assay buffer consisted of 50 mM HEPES supplemented with 5 mM MgCl2, 1 mM CaCl2, 0.02% Tween 20 and 0.1% Ovalbumin, and pH was adjusted to 7.4.
The cells used in this assay (clone BHK hGCGR A3*25) were BHK cells stable transfected with an expression plasmid containing the cDNA encoding the human glucagon receptor.
The cells were grown at 5% CO2 in DMEM, 10% fetal calf serum, 1% Pen/Strep (Penicillin/Streptomycin) and 1.0 mg/ml of the selection marker G418. To make a membrane preparation the cells were grown to approximately 80% confluence. The cells were washed twice in phosphate-buffered saline and harvested. The cells were pelleted using a brief centrifugation and the cell pellet was kept on ice. Lyse the cells by adding approx. 5 ml HME buffer, mix by pipetting and snap freeze in liquid nitrogen. Thaw quickly and add HME buffer to 10 ml. The cell pellet was homogenised with an ULTRA-THURRAX dispersing instrument for 20-30 sec. The homogenate was centrifuged at 20.000×G, 4° C. for 10 min. The pellet was re-suspended (homogenised) in 1-2 ml HME buffer. The protein concentration was determined. The membranes were aliquoted and snap-frozen in liquid nitrogen and stored at minus 80° C.
1. For the receptor binding assay, 50 μl of the assay buffer was added to each well of an assay plate.
2. Test compounds were serially diluted to give the following concentrations: 8×10EE-7 M, 8×10EE-8 M, 8×10EE-9 M, 8×10EE-10 M, 8×10EE-11 M, 8×10EE-12 M and 8×10EE-13 M. Twenty-five μl were added to appropriate wells in the assay plate.
3. Cell membrane aliquots were thawed and diluted to their working concentration. Fifty μl were added to each well in the assay plate.
4. WGA SPA beads were suspended in assay buffer at 20 mg/ml. The suspension was diluted to 10 mg/ml in assay buffer just prior to addition to the assay plate. Fifty μl were added to each well in the assay plate.
5. The incubation was started by adding 25 μl of 480 pM solution of [125I]-glucagon to each well of the assay plate. A 25 μl aliquot was reserved for measuring total counts/well.
6. The assay plate was incubated for 2 h at 25° C.
7. […]
On to `CC(C)C[C@H](NC(=O)[C@H](CC(C)C)NC(=O)[C@H](Cc1c[nH]c2ccccc12)NC(=O)[C@H](CCC(N)=O)NC(=O)[C@@H](NC(=O)[C@H](Cc1ccccc1)NC(=O)[C@H](CCC(=O)O)NC(=O)[C@H](CCC(N)=O)NC(=O)[C@H](C)NC(=O)[C@H](C)NC(=O)[C@H](CCCCN)NC(=O)[C@H](CO)NC(=O)[C@H](CC(=O)O)NC(=O)[C@H](CC(C)C)NC(=O)[C@H](Cc1ccc(O)cc1)NC(=O)[C@H](CCCCN)NC(=O)[C@H](CO)NC(=O)[C@H](CC(C)C)NC(=O)[C@H](CC(=O)O)NC(=O)[C@H](CO)NC(=O)[C@@H](NC(=O)[C@H](Cc1ccccc1)NC(=O)[C@@H](NC(=O)CNC(=O)[C@H](CCC(N)=O)NC(=O)C(C)(C)NC(=O)[C@@H](N)Cc1c[nH]cn1)[C@@H](C)O)[C@@H](C)O)C(C)C)C(=O)N[C@@H](CC(N)=O)C(=O)N[C@@H](CCCCNC(=O)CC[C@H](NC(=O)CC[C@H](NC(=O)COCCOCCNC(=O)COCCOCCNC(=O)CC[C@H](NC(=O)CCCCCCCCCCCCCCCCC(=O)O)C(=O)O)C(=O)O)C(=O)O)C(N)=O` [Example 8, N^ε29-[(4S)-4-carboxy-4-[[(4S)-4-carboxy-4-[[2-[2-[2-[[2-[2-[2-[[(4S)-4-carboxy-4-(17-carboxyheptadecanoylamino)butanoyl]amino]ethoxy]ethoxy]acetyl]amino]ethoxy]ethoxy]acetyl]amino]butanoyl]amino]butanoyl]-[Aib2,Leu10,Lys17,Ala18,Glu21,Leu27,Lys29]-Glucagon amide] (H-H[Aib]QGTFTSDLSKYLDSKAAQEFVQWLLNK([γGlu-γGlu-AEEA-AEEA-γGlu-C18 diacid])-NH2; N-terminus assumed), for which the IC50 was 6.7 nM. The same measure for `CC(C)C[C@H](NC(=O)[C@H](Cc1ccc(O)cc1)NC(=O)[C@H](CCCCN)NC(=O)[C@H](CO)NC(=O)[C@H](CC(C)C)NC(=O)[C@H](CC(=O)O)NC(=O)[C@H](CO)NC(=O)[C@@H](NC(=O)[C@H](Cc1ccccc1)NC(=O)[C@@H](NC(=O)CNC(=O)[C@H](CCC(N)=O)NC(=O)C(C)(C)NC(=O)[C@@H](N)Cc1c[nH]cn1)[C@@H](C)O)[C@@H](C)O)C(=O)N[C@@H](CC(=O)O)C(=O)N[C@@H](CCCCNC(=O)CC[C@H](NC(=O)CC[C@H](NC(=O)COCCOCCNC(=O)COCCOCCNC(=O)CC[C@H](NC(=O)CCCCCCCCCCCCCCCCC(=O)O)C(=O)O)C(=O)O)C(=O)O)C(=O)N[C@@H](CCCNC(=N)N)C(=O)N[C@@H](CCCNC(=N)N)C(=O)N[C@@H](C)C(=O)N[C@@H](CCCNC(=N)N)C(=O)N[C@@H](CCC(=O)O)C(=O)N[C@@H](Cc1ccccc1)C(=O)N[C@H](C(=O)N[C@@H](CCC(N)=O)C(=O)N[C@@H](Cc1c[nH]c2ccccc12)C(=O)N[C@@H](CC(C)C)C(=O)N[C@@H](CC(C)C)C(=O)N[C@@H](CC(N)=O)C(=O)N[C@H](C(N)=O)[C@@H](C)O)C(C)C` [Example 10, N^ε16-[(4S)-4-carboxy-4-[[(4S)-4-carboxy-4-[[2-[2-[2-[[2-[2-[2-[[(4S)-4-carboxy-4-(17-carboxyheptadecanoylamino)butanoyl]amino]ethoxy]ethoxy]acetyl]amino]ethoxy]ethoxy]acetyl]amino]butanoyl]amino]butanoyl]-[Aib2,Leu10,Lys16,Arg20,Glu21,Leu27]-Glucagon amide] (H-H[Aib]QGTFTSDLSKYLDK([γGlu-γGlu-AEEA-AEEA-γGlu-C18 diacid])RRAREFVQWLLNT-NH2; N-terminus assumed): 1.2 nM; for `CC(C)C[C@H](NC(=O)[C@H](Cc1ccc(O)cc1)NC(=O)[C@H](CCCCN)NC(=O)[C@H](CO)NC(=O)[C@H](CC(C)C)NC(=O)[C@H](CC(=O)O)NC(=O)[C@H](CO)NC(=O)[C@@H](NC(=O)[C@H](Cc1ccccc1)NC(=O)[C@@H](NC(=O)CNC(=O)[C@H](CCC(N)=O)NC(=O)C1(NC(=O)[C@@H](N)Cc2c[nH]cn2)CCC1)[C@@H](C)O)[C@@H](C)O)C(=O)N[C@@H](CCC(=O)O)C(=O)N[C@@H](CCC(=O)O)C(=O)N[C@@H](CCCNC(=N)N)C(=O)N[C@@H](CCCNC(=N)N)C(=O)N[C@@H](C)C(=O)N[C@@H](CCCNC(=N)N)C(=O)N[C@@H](CC(=O)O)C(=O)N[C@@H](Cc1ccccc1)C(=O)N[C@H](C(=O)N[C@@H](CCC(N)=O)C(=O)N[C@@H](Cc1c[nH]c2ccccc12)C(=O)N[C@@H](CC(C)C)C(=O)N[C@@H](CC(C)C)C(=O)N[C@@H](CCCCNC(=O)CNC(=O)[C@H](CO)NC(=O)[C@H](CCC(=O)O)NC(=O)CNC(=O)[C@H](CO)NC(=O)CC[C@H](NC(=O)CC[C@H](NC(=O)CCCCCCCCCCCCCCCCC(=O)O)C(=O)O)C(=O)O)C(=O)N[C@H](C(N)=O)[C@@H](C)O)C(C)C` [Example 16, N^ε28-[2-[[(2S)-2-[[(2S)-4-carboxy-2-[[2-[[(2S)-2-[[(4S)-4-carboxy-4-[[(4S)-4-carboxy-4-(17-carboxyheptadecanoylamino)butanoyl]amino]butanoyl]amino]-3-hydroxypropanoyl]amino]acetyl]amino]butanoyl]amino]-3-hydroxypropanoyl]amino]acetyl]-[Acb2,Leu10,Glu15,Glu16,Arg20,Leu27,Lys28]-Glucagon amide] (I: H-H[Ac4c]QGTFTSDLSKYLEERRARDFVQWLLKT-NH2 / II: {C18 diacid-γGlu-γGlu}-SGESG; amide I:28-II:C; N-terminus assumed): 3.9 nM. For the compound `CC(C)C[C@H](NC(=O)[C@H](Cc1c[nH]c2ccccc12)NC(=O)[C@H](C)NC(=O)[C@@H](NC(=O)[C@H](Cc1ccccc1)NC(=O)[C@H](CCC(=O)O)NC(=O)[C@H](CCCNC(=N)N)NC(=O)[C@H](C)NC(=O)[C@H](CCCNC(=N)N)NC(=O)[C@H](CCCNC(=N)N)NC(=O)[C@H](CCCCNC(=O)CC[C@H](NC(=O)COCCOCCNC(=O)COCCOCCNC(=O)CC[C@H](NC(=O)CC[C@H](NC(=O)CCCCCCCCCCCCCCCCC(=O)O)C(=O)O)C(=O)O)C(=O)O)NC(=O)[C@H](CC(=O)O)NC(=O)[C@H](CC(C)C)NC(=O)[C@H](Cc1ccc(O)cc1)NC(=O)[C@H](CCCCN)NC(=O)[C@H](CO)NC(=O)[C@H](CC(C)C)NC(=O)[C@H](CC(=O)O)NC(=O)[C@H](CO)NC(=O)[C@@H](NC(=O)[C@H](Cc1ccccc1)NC(=O)[C@@H](NC(=O)CNC(=O)[C@H](CCC(N)=O)NC(=O)C(C)(C)NC(=O)[C@@H](N)Cc1c[nH]cn1)[C@@H](C)O)[C@@H](C)O)C(C)C)C(=O)N[C@@H](CC(C)C)C(=O)N[C@@H](CC(N)=O)C(=O)N[C@H](C(N)=O)[C@@H](C)O` [Example 19, N^ε29-[(4S)-4-carboxy-4-[[2-[2-[2-[[2-[2-[2-[[(4S)-4-carboxy-4-[[(4S)-4-carboxy-4-(17-carboxyheptadecanoylamino)butanoyl]amino]butanoyl]amino]ethoxy]ethoxy]acetyl]amino]ethoxy]ethoxy]acetyl]amino]butanoyl]-[Aib2,Leu10,Lys16,Arg20,Glu21,Ala24,Leu27]-Glucagon amide] (H-H[Aib]QGTFTSDLSKYLDK([γGlu-AEEA-AEEA-γGlu-γGlu-C18 diacid])RRAREFVAWLLNT-NH2; N-terminus assumed), the half-maximal inhibitory concentration (IC50) came out at 8.5 nM.
